Laboratory results taken from US20230322723A1, “COMPOUNDS FOR SUPPRESSING EGFR MUTANT CANCER AND PHARMACEUTICAL USE THEREOF” (J2H BIOTECH INC., priority 2020, published 2023).

How the values were obtained:
EGFR^del19+T790M+C797S = assay: EGFR protein degradation test (Western blot) in Ba/F3 cells expressing mutant EGFR del19+T790M+C797S (DTC); type: cell-based; settings: compounds at 0.1 μM and 1 μM, 24 hours, Western blot with EGFR antibody
Summary of the method: (§1)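 EGFR protein level was measured by Western blot on 30 μg lysate, bands quantified by imager. Lysates came from Ba/F3 lines carrying normal, LTC or DTC mutant EGFR, exposed 24 h to compound at 0.1 and 1 μM.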

EGFR^L858R+T790M+C797S = target: T1, EGFR^L858R+T790M+C797S (Homo sapiens, UniProt P00533, C797S/L858R/T790M); assay: EGFR protein degradation test (Western blot) in Ba/F3 cells expressing mutant EGFR L858R+T790M+C797S (LTC); type: cell-based; settings: compounds at 0.1 μM and 1 μM, 24 hours, Western blot with EGFR antibody
T1 construct: expressed in transfected cells; host or cells: Ba/F3
T1 sequence (P00533 25-1210 T790M/C797S/L858R): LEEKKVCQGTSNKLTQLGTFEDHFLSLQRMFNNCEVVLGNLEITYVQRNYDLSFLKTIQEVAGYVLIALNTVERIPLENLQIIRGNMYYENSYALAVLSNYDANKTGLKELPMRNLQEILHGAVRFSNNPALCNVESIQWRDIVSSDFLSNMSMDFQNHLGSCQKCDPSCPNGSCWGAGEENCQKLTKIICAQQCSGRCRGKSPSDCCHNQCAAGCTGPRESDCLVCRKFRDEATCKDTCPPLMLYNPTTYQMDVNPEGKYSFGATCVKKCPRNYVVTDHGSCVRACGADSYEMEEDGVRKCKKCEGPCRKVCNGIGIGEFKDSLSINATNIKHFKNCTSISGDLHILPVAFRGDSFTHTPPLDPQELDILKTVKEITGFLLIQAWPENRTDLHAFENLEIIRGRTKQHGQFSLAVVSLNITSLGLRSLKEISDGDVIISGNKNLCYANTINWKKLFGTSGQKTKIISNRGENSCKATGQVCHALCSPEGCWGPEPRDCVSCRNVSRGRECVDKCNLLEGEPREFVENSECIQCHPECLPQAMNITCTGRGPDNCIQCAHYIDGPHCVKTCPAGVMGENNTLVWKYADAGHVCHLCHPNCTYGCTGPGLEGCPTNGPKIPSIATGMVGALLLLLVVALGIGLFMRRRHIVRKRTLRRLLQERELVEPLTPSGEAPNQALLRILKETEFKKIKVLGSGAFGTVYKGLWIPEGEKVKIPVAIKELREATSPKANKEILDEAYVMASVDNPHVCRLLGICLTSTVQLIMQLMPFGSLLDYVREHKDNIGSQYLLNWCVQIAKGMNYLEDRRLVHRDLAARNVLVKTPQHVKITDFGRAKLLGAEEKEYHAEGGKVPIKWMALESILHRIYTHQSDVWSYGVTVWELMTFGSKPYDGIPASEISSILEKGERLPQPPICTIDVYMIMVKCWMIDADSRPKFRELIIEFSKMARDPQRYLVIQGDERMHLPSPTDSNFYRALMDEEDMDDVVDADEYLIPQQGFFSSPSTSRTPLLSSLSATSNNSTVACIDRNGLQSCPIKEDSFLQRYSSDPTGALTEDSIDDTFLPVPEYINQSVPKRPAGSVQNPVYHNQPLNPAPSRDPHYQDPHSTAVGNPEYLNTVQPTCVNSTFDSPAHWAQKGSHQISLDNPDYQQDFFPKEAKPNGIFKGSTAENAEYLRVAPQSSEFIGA
Summary of the method: as §1

Row | SMILES | DTC (EGFR^del19+T790M+C797S) protein degradation (EGFR^del19+T790M+C797S) | LTC (EGFR^L858R+T790M+C797S) protein degradation (EGFR^L858R+T790M+C797S)
1 | COc1cc(N2CCN(CC3CCN(Cc4ccc5c(c4)C(=O)N(C4CCC(=O)NC4=O)C5=O)CC3)CC2)ccc1Nc1ncc(Cl)c(Nc2ccccc2N(C)S(C)(=O)=O)n1 (stereo not drawn) [Compound 41, N-(2-((5-chloro-2-((4-(4-((1-((2-(2,6-dioxopiperidin-3-yl)-1,3-dioxoisoindolin-5-yl)methyl)piperidin-4-yl)methyl)piperazin-1-yl)-2-methoxyphenyl)amino)pyrimidin-4-yl)amino)phenyl)-N-methylmethanesulfonamide] | − (Protein degradation < 20%) | − (Protein degradation < 20%)
2 | CN(c1ccccc1Nc1nc(Nc2ccc(N3CCC(N4CCN(Cc5ccc6c(c5)C(=O)N(C5CCC(=O)NC5=O)C6=O)CC4)CC3)c(F)c2)ncc1Cl)S(C)(=O)=O (stereo not drawn) [Compound 42, N-(2-((5-chloro-2-((4-(4-(4-((2-(2,6-dioxopiperidin-3-yl)-1,3-dioxoisoindolin-5-yl)methyl)piperazin-1-yl)piperidin-1-yl)-3-fluorophenyl)amino)pyrimidin-4-yl)amino)phenyl)-N-methylmethanesulfonamide] | + (Protein degradation 20~80%) | − (Protein degradation < 20%)
3 | COc1cc(N2CCC(N3CCN(C[C@@H]4CCCN4c4ccc5c(c4)C(=O)N(C4CCC(=O)NC4=O)C5=O)CC3)CC2)ccc1Nc1ncc(Cl)c(Nc2ccccc2N(C)S(C)(=O)=O)n1 (stereo partly drawn) [Compound 44, N-(2-((5-chloro-2-((4-(4-(4-(((2S)-1-(2-(2,6-dioxopiperidin-3-yl)-1,3-dioxoisoindolin-5-yl)pyrrolidin-2-yl)methyl)piperazin-1-yl)piperidin-1-yl)-2-methoxyphenyl)amino)pyrimidin-4-yl)amino)phenyl)-N-methylmethanesulfonamide] | − (Protein degradation < 20%) | + (Protein degradation 20~80%)
4 | CN(c1ccccc1Nc1nc(Nc2ccc(N3CCN(CC4CCN(CCOc5cccc6c5C(=O)N(C5CCC(=O)NC5=O)C6=O)CC4)CC3)c(F)c2)ncc1Cl)S(C)(=O)=O (stereo not drawn) [Compound 46, N-(2-((5-chloro-2-((4-(4-((1-(2-((2-(2,6-dioxopiperidin-3-yl)-1,3-dioxoisoindolin-4-yl)oxy)ethyl)piperidin-4-yl)methyl)piperazin-1-yl)-3-fluorophenyl)amino)pyrimidin-4-yl)amino)phenyl)-N-methylmethanesulfonamide] | + (Protein degradation 20~80%) | + (Protein degradation 20~80%)
5 | COc1cc(N2CCC(CN3CCC(C(=O)Nc4cccc5c4CN(C4CCC(=O)NC4=O)C5=O)CC3)CC2)ccc1Nc1ncc(Cl)c(Nc2ccccc2N(C)S(C)(=O)=O)n1 (stereo not drawn) [Compound 49, 1-((1-(4-((5-chloro-4-((2-(N-methylmethylsulfonamido)phenyl)amino)pyrimidin-2-yl)amino)-3-methoxyphenyl)piperidin-4-yl)methyl)-N-(2-(2,6-dioxopiperidin-3-yl)-1-oxoisoindolin-4-yl)piperidin-4-carboxamide] | − (Protein degradation < 20%) | − (Protein degradation < 20%)
6 | COc1cc(N2CCC3(CCN(CC(=O)Nc4cccc5c4CN(C4CCC(=O)NC4=O)C5=O)CC3)CC2)ccc1Nc1ncc(Cl)c(Nc2ccccc2N(C)S(C)(=O)=O)n1 (stereo not drawn) [Compound 50, 2-(9-(4-((5-chloro-4-((2-(N-methylmethylsulfonamido)phenyl)amino)pyrimidin-2-yl)amino)-3-methoxyphenyl)-3,9-diazaspiro[5.5]undecan-3-yl)-N-(2-(2,6-dioxopiperidin-3-yl)-1-oxoisoindolin-4-yl)acetamide] | + (Protein degradation 20~80%) | − (Protein degradation < 20%)
7 | COc1cc(N2CCC(N3CCN(CCOc4cccc5c4C(=O)N(C4CCC(=O)NC4=O)C5=O)CC3)CC2)ccc1Nc1ncc(Cl)c(Nc2ccccc2N(C)S(C)(=O)=O)n1 (stereo not drawn) [Compound 52, N-(2-((5-chloro-2-((4-(4-(4-(2-((2-(2,6-dioxopiperidin-3-yl)-1,3-dioxoisoindolin-4-yl)oxy)ethyl)piperazin-1-yl)piperidin-1-yl)-2-methoxyphenyl)amino)pyrimidin-4-yl)amino)phenyl)-N-methylmethanesulfonamide] | + (Protein degradation 20~80%) | − (Protein degradation < 20%)
8 | COc1cc(N2CCN(CC3CCN(CCOc4cccc5c4C(=O)N(C4CCC(=O)NC4=O)C5=O)CC3)CC2)ccc1Nc1ncc(Cl)c(Nc2ccccc2N(C)S(C)(=O)=O)n1 (stereo not drawn) [Compound 57, N-(2-((5-chloro-2-((4-(4-((1-(2-((2-(2,6-dioxopiperidin-3-yl)-1,3-dioxoisoindolin-4-yl)oxy)ethyl)piperidin-4-yl)methyl)piperazin-1-yl)-2-methoxyphenyl)amino)pyrimidin-4-yl)amino)phenyl)-N-methylmethanesulfonamide] | − (Protein degradation < 20%) | − (Protein degradation < 20%)
9 | COc1cc(N2CCC(N3CCN(CCNc4ccc5c(c4)C(=O)N(C4CCC(=O)NC4=O)C5=O)CC3)CC2)ccc1Nc1ncc(Cl)c(Nc2ccccc2N(C)S(C)(=O)=O)n1 (stereo not drawn) [Compound 58, N-(2-((5-chloro-2-((4-(4-(4-(2-((2-(2,6-dioxopiperidin-3-yl)-1,3-dioxoisoindolin-5-yl)amino)ethyl)piperazin-1-yl)piperidin-1-yl)-2-methoxyphenyl)amino)pyrimidin-4-yl)amino)phenyl)-N-methylmethanesulfonamide] | − (Protein degradation < 20%) | + (Protein degradation 20~80%)
10 | COc1cc(N2CCN(CC3CCN(CC4CCN(c5ccc6c(c5)C(=O)N(C5CCC(=O)NC5=O)C6=O)CC4)CC3)CC2)ccc1Nc1ncc(Cl)c(Nc2ccccc2N(C)S(C)(=O)=O)n1 (stereo not drawn) [Compound 59, N-(2-((5-chloro-2-((4-(4-((1-((1-(2-(2,6-dioxopiperidin-3-yl)-1,3-dioxoisoindolin-5-yl)piperidin-4-yl)methyl)piperidin-4-yl)methyl)piperazin-1-yl)-2-methoxyphenyl)amino)pyrimidin-4-yl)amino)phenyl)-N-methylmethanesulfonamide] | ++ (Protein degradation > 80%) | + (Protein degradation 20~80%)
11 | COc1cc(N2CCC(N3CCN(CC4CN(c5ccc6c(c5)C(=O)N(C5CCC(=O)NC5=O)C6=O)C4)CC3)CC2)ccc1Nc1ncc(Cl)c(Nc2ccccc2N(C)S(C)(=O)=O)n1 (stereo not drawn) [Compound 60, N-(2-((5-chloro-2-((4-(4-(4-((1-(2-(2,6-dioxopiperidin-3-yl)-1,3-dioxoisoindolin-5-yl)azetidin-3-yl)methyl)piperazin-1-yl)piperidin-1-yl)-2-methoxyphenyl)amino)pyrimidin-4-yl)amino)phenyl)-N-methylmethanesulfonamide] | − (Protein degradation < 20%) | ++ (Protein degradation > 80%)
12 | COc1cc(N2CCN(CC3CCN(CC4CN(c5ccc6c(c5)C(=O)N(C5CCC(=O)NC5=O)C6=O)C4)CC3)CC2)ccc1Nc1ncc(Cl)c(Nc2ccccc2N(C)S(C)(=O)=O)n1 (stereo not drawn) [Compound 61, N-(2-((5-chloro-2-((4-(4-((1-((1-(2-(2,6-dioxopiperidin-3-yl)-1,3-dioxoisoindolin-5-yl)azetidin-3-yl)methyl)piperidin-4-yl)methyl)piperazin-1-yl)-2-methoxyphenyl)amino)pyrimidin-4-yl)amino)phenyl)-N-methylmethanesulfonamide] | − (Protein degradation < 20%) | + (Protein degradation 20~80%)
13 | COc1cc(N2CCC(CN3CCC(CNc4cccc5c4C(=O)N(C4CCC(=O)NC4=O)C5=O)CC3)CC2)ccc1Nc1ncc(Cl)c(Nc2ccccc2N(C)S(C)(=O)=O)n1 (stereo not drawn) [Compound 62, N-(2-((5-chloro-2-((4-(4-((4-(((2-(2,6-dioxopiperidin-3-yl)-1,3-dioxoisoindolin-4-yl)amino)methyl)piperidin-1-yl)methyl)piperidin-1-yl)-2-methoxyphenyl)amino)pyrimidin-4-yl)amino)phenyl)-N-methylmethanesulfonamide] | + (Protein degradation 20~80%) | ++ (Protein degradation > 80%)
14 | COc1cc(N2CCC(CN3CCC(CNc4ccc5c(c4)C(=O)N(C4CCC(=O)NC4=O)C5=O)CC3)CC2)ccc1Nc1ncc(Cl)c(Nc2ccccc2N(C)S(C)(=O)=O)n1 (stereo not drawn) [Compound 63, N-(2-((5-chloro-2-((4-(4-((4-(((2-(2,6-dioxopiperidin-3-yl)-1,3-dioxoisoindolin-5-yl)amino)methyl)piperidin-1-yl)methyl)piperidin-1-yl)-2-methoxyphenyl)amino)pyrimidin-4-yl)amino)phenyl)-N-methylmethanesulfonamide] | + (Protein degradation 20~80%) | ++ (Protein degradation > 80%)
15 | COc1cc(N2CCN(CC3CCN(C(=O)CCc4ccc5c(c4)C(=O)N(C4CCC(=O)NC4=O)C5=O)CC3)CC2)ccc1Nc1ncc(Cl)c(Nc2ccccc2N(C)S(C)(=O)=O)n1 (stereo not drawn) [Compound 64, N-(2-((5-chloro-2-((4-(4-((1-(3-(2-(2,6-dioxopiperidin-3-yl)-1,3-dioxoisoindolin-5-yl)propanoyl)piperidin-4-yl)methyl)piperazin-1-yl)-2-methoxyphenyl)amino)pyrimidin-4-yl)amino)phenyl)-N-methylmethanesulfonamide] | − (Protein degradation < 20%) | + (Protein degradation 20~80%)
